Tests used:
[1] = system: C2C12+EA-NLS/NRS+GR-PL cells; assay: EFC mitotic index assay, C2C12+EA-NLS/NRS+GR-PL cells (Stanford GR cells); assay type: cell-based, mouse; conditions: 24 hours, 30 min read
Method: (§1) In all experiments described, 20,000 cells/well were plated in a 96 well Corning clear bottom white plate in a total volume of 100 μL. The cells were treated for 24 hours with 5 μL of either the appropriate vehicle control or varying concentrations of the six compounds listed above. The next day, 100 μL of Tropix/ABI Gal screen cell lysis buffer/substrate mixture (24:1 ratio of component) was added to the cells/media and the plate was read on the Victor II luminescent plate reader at 30, 60 and 120 minutes after the lysis/substrate addition.
(§2) The initial test of the cell cycle arresting compounds was performed on a double stable cell line having both of the constructs expressing the EA-NLS/NRS and GR-PL. (PL is β-galactosidase enzyme donor fragment and EA is the enzyme acceptor fragment available from DiscoveRx, Fremont, CA.). The parental line, C2C12 is derived from mouse muscle cells. In the experiments in which EA-NLS/NRS and GR-PL are expressed in the C2C12 parental cell line, the constructs were generated by subcloning the human GR sequence into a MFG-based retroviral vector that had been molecularly altered in a lab at Stanford. An MFG vector is described in U.S. Pat. No. 6,544,771. The EA-NLS/NRS fragment was subcloned into a wzl-based retroviral vector again molecularly altered in a lab at Stanford. In the experiments performed using a CHO-K1 parental cell line background the EA-NLS/NRS was subcloned into the Kpn I and Xba I sites of pcDNA3.1 Hygro vector from Invitrogen (catalog #V870-20). The plasmid was introduced into the cells via FuGene6 (Roche) transfection reagent. Cells were selected in the presence of 250 μg/mL of Hygromycin and single cell clones isolated that expressed the EA-NLS/NRS. The human GR gene was cloned by PCR and subcloned into the Xho I and Bam HI sites of the DiscoveRx vector-pCMV-myc-PL (C3). The plasmid was introduced into the selected EA-NLS/NRS expressing clone isolated above by FuGene 6 transfection. Another round of screening in the presence of 300-500 μg/mL of G418 was used to select GR-PL transfected clones. Clonal selection was performed to finally identify the clone that was used in these studies. In the studies using the CHO-K1+cyto-EA and cJUN-PL, the same Invitrogen pcDNA3.1 Hygro vector was used to express EA. In this case, the EA fragment was subcloned into the Kpn I/Not I sites of pcDNA3.1 Hygro. The plasmid DNA was introduced as described above using FuGene6 reagent. Cells were selected in the presence of 250 μg/mL of hygromycin and clonal selection was performed. The c-Jun gene was generated by PCR using an existing template copy of the gene and then subcloned into the Xho I/Bam HI sites of pCMV-PL-myc (C3).

[2] = system: CHO-K1+EA-NLS/NRS+GR-PL cells; assay: EFC mitotic index assay, CHO-K1+EA-NLS/NRS+GR-PL cells, antibiotic selected pool (DX M19/GR pool); assay type: cell-based; conditions: for Avg luminescence readout / R1 luminescence readout / R3 luminescence readout / Ratio (Avg vs 0 conc): 24 hours, 30 min read; for increase in EFC activity (in words): overnight treatment
Method: as §1, §2
In the next experiment, an antibiotic selected pool population of CHO-K1 cells that express EA-NLS/NRS and GR-PL were tested with the same six set of cell cycle blocking compounds. […] FIGS. 2a and 2b show the immunofluorescence localization of EA and GR-PL in that the blue DAPI nuclear staining can be seen to be concentrated in the nucleus, while the green fluorescein stain on the antibody (from Abcam PLC) to the glucocorticoid receptor is seen in the cytoplasm. […] Again, six tables are presented one for each of the six drugs tested.
This only occurs with compounds that block the cells in mitosis, allowing EA and ProLabel to complement.

[3] = system: CHO-K1+cyto-EA cells transfected with cJUN-PL; assay: EFC mitotic index assay, CHO-K1+cyto-EA cells transiently transfected with cJUN-PL; assay type: cell-based; conditions: for Avg luminescence readout / R1 luminescence readout / R3 luminescence readout / Ratio (Avg vs 0 conc): overnight; for increase in EFC activity (in words): overnight incubation
Method: as §2
To further test the concept of sequestering of one β-galactosidase enzyme fragment in the nucleus (in this case PL) while localizing the other component in the cytoplasm (in this case EA) the following experiment was carried out. […] The cyto-EA cells were transiently transfected with cJUN-PL plasmid DNA. Two days after the transfection, the cells were re-plated into a 96 well Corning white clear bottom multiwell plate at 20,000 cells/well. The cells were allowed to adhere overnight and the next day were treated with titrating concentrations of the six different cell cycle blocking compounds. The incubation was carried out overnight. The next day the media was removed from the cells and 100 μL of Tropix/ABI Gal screen cell lysis/substrate reagent was added to the cells.

C[C@@]1(CO)[C@H](O)CC[C@@]2(C)[C@H]1CC[C@H]1C[C@@H]3C[C@@]12CC[C@]3(O)CO [Aphidicolin, aphidicolin]
Avg luminescence readout ([1]; 0.3 μM): 3444 | R1 luminescence readout ([1]; 0.3 μM): 3081 | R3 luminescence readout ([1]; 0.3 μM): 3500 | Ratio (Avg vs 0 conc) ([1]; 0.3 μM): 1 | Avg luminescence readout ([1]; 1 μM): 3307 | R1 luminescence readout ([1]; 1 μM): 3250 | R3 luminescence readout ([1]; 1 μM): 3388 | Ratio (Avg vs 0 conc) ([1]; 1 μM): 1 | Avg luminescence readout ([1]; 3.3 μM): 3132 | R1 luminescence readout ([1]; 3.3 μM): 3171 | R3 luminescence readout ([1]; 3.3 μM): 3105 | Ratio (Avg vs 0 conc) ([1]; 3.3 μM): 1 | Avg luminescence readout ([1]; 10.0 μM): 3413 | R1 luminescence readout ([1]; 10.0 μM): 2827 | R3 luminescence readout ([1]; 10.0 μM): 3765 | Ratio (Avg vs 0 conc) ([1]; 10.0 μM): 1 | Avg luminescence readout ([2]; 0.3 μM): 5508 | R1 luminescence readout ([2]; 0.3 μM): 5478 | R3 luminescence readout ([2]; 0.3 μM): 5469 | Ratio (Avg vs 0 conc) ([2]; 0.3 μM): 1 | Avg luminescence readout ([2]; 1 μM): 5604 | R1 luminescence readout ([2]; 1 μM): 5656 | R3 luminescence readout ([2]; 1 μM): 5491 | Ratio (Avg vs 0 conc) ([2]; 1 μM): 1 | Avg luminescence readout ([2]; 3.3 μM): 4561 | R1 luminescence readout ([2]; 3.3 μM): 4392 | R3 luminescence readout ([2]; 3.3 μM): 4749 | Ratio (Avg vs 0 conc) ([2]; 3.3 μM): 0 | Avg luminescence readout ([2]; 10.0 μM): 6941 | R1 luminescence readout ([2]; 10.0 μM): 7213 | R3 luminescence readout ([2]; 10.0 μM): 6651 | Ratio (Avg vs 0 conc) ([2]; 10.0 μM): 1 | increase in EFC activity (in words) [2]: did not cause an increase in EFC activity | Avg luminescence readout ([3]; 1.5 μg/mL): 7545 | R1 luminescence readout ([3]; 1.5 μg/mL): 7218 | R3 luminescence readout ([3]; 1.5 μg/mL): 7576 | Ratio (Avg vs 0 conc) ([3]; 1.5 μg/mL): 0.9 | Avg luminescence readout ([3]; 4.4 μg/mL): 9193 | R1 luminescence readout ([3]; 4.4 μg/mL): 9492 | R3 luminescence readout ([3]; 4.4 μg/mL): 9245 | Ratio (Avg vs 0 conc) ([3]; 4.4 μg/mL): 1.1 | Avg luminescence readout ([3]; 13.3 μg/mL): 7027 | R1 luminescence readout ([3]; 13.3 μg/mL): 6677 | R3 luminescence readout ([3]; 13.3 μg/mL): 7784 | Ratio (Avg vs 0 conc) ([3]; 13.3 μg/mL): 0.8 | Avg luminescence readout ([3]; 40.0 μg/mL): 9131 | R1 luminescence readout ([3]; 40.0 μg/mL): 8645 | R3 luminescence readout ([3]; 40.0 μg/mL): 9818 | Ratio (Avg vs 0 conc) ([3]; 40.0 μg/mL): 1.0 | increase in EFC activity (in words) [3]: negligible increase in EFC activity

NC(=O)NO [Hydroxyurea]
Avg luminescence readout ([1]; 1.0 μg/mL): 11689 | R1 luminescence readout ([1]; 1.0 μg/mL): 12080 | R3 luminescence readout ([1]; 1.0 μg/mL): 11424 | Ratio (Avg vs 0 conc) ([1]; 1.0 μg/mL): 1 | Avg luminescence readout ([1]; 3.3 μg/mL): 11522 | R1 luminescence readout ([1]; 3.3 μg/mL): 12588 | R3 luminescence readout ([1]; 3.3 μg/mL): 11171 | Ratio (Avg vs 0 conc) ([1]; 3.3 μg/mL): 1 | Avg luminescence readout ([1]; 10.0 μg/mL): 9211 | R1 luminescence readout ([1]; 10.0 μg/mL): 8813 | R3 luminescence readout ([1]; 10.0 μg/mL): 9419 | Ratio (Avg vs 0 conc) ([1]; 10.0 μg/mL): 1 | Avg luminescence readout ([1]; 30.0 μg/mL): 7221 | R1 luminescence readout ([1]; 30.0 μg/mL): 7272 | R3 luminescence readout ([1]; 30.0 μg/mL): 7165 | Ratio (Avg vs 0 conc) ([1]; 30.0 μg/mL): 1 | Avg luminescence readout ([2]; 1.0 μg/mL): 4562 | R1 luminescence readout ([2]; 1.0 μg/mL): 4403 | R3 luminescence readout ([2]; 1.0 μg/mL): 4740 | Ratio (Avg vs 0 conc) ([2]; 1.0 μg/mL): 1 | Avg luminescence readout ([2]; 3.3 μg/mL): 4389 | R1 luminescence readout ([2]; 3.3 μg/mL): 4423 | R3 luminescence readout ([2]; 3.3 μg/mL): 4304 | Ratio (Avg vs 0 conc) ([2]; 3.3 μg/mL): 1 | Avg luminescence readout ([2]; 10.0 μg/mL): 3959 | R1 luminescence readout ([2]; 10.0 μg/mL): 3865 | R3 luminescence readout ([2]; 10.0 μg/mL): 3897 | Ratio (Avg vs 0 conc) ([2]; 10.0 μg/mL): 1 | Avg luminescence readout ([2]; 30.0 μg/mL): 3793 | R1 luminescence readout ([2]; 30.0 μg/mL): 3825 | R3 luminescence readout ([2]; 30.0 μg/mL): 3785 | Ratio (Avg vs 0 conc) ([2]; 30.0 μg/mL): 1 | increase in EFC activity (in words) [2]: did not cause an increase in EFC activity | Avg luminescence readout ([3]; 3.0 μg/mL): 7420 | R1 luminescence readout ([3]; 3.0 μg/mL): 7319 | R3 luminescence readout ([3]; 3.0 μg/mL): 6690 | Ratio (Avg vs 0 conc) ([3]; 3.0 μg/mL): 1.2 | Avg luminescence readout ([3]; 10.0 μg/mL): 7634 | R1 luminescence readout ([3]; 10.0 μg/mL): 8237 | R3 luminescence readout ([3]; 10.0 μg/mL): 6699 | Ratio (Avg vs 0 conc) ([3]; 10.0 μg/mL): 1.3 | Avg luminescence readout ([3]; 30.0 μg/mL): 6984 | R1 luminescence readout ([3]; 30.0 μg/mL): 7217 | R3 luminescence readout ([3]; 30.0 μg/mL): 6624 | Ratio (Avg vs 0 conc) ([3]; 30.0 μg/mL): 1.2 | Avg luminescence readout ([3]; 100.0 μg/mL): 7742 | R1 luminescence readout ([3]; 100.0 μg/mL): 7955 | R3 luminescence readout ([3]; 100.0 μg/mL): 7483 | Ratio (Avg vs 0 conc) ([3]; 100.0 μg/mL): 1.3 | increase in EFC activity (in words) [3]: negligible increase in EFC activity

Reference: patent US20070015232A1, “Mitotic index assay” (DiscoveRx, Inc., priority 2005, published 2007)
